The text below walks through data of DBAASP.

Common to all, as to test: ≥ marks a high value that may be exact or a test limit, other limits are often not marked, values filed in µg/mL are converted to µM
Assay [1] relates to Escherichia coli HB101.
Assay [2] deals with Leishmania major MHOM/IL/67/JERICHO-II.
In assay [3] the test system is Staphylococcus aureus Cowan 1.
For assay [4], the system named is Acinetobacter baumannii.
Assay [5] relates to Arcyria cinerea.
Assay [6] deals with Bacillus cereus.
In assay [7] the test system is Bacillus subtilis.
Assay [8] has as its system Candida albicans 1.
For assay [9], the system named is Candida albicans 5.
For assay [10], the system named is Candida albicans.
The subject of assay [11] is Candida glabrata 1.
Assay [12] has as its system Candida glabrata.
Assay [13] concerns Cryptococcus neoformans.
Assay [14] relates to Enterococcus faecalis.
Assay [15] deals with Enterococcus faecium.
In assay [16] the test system is Escherichia coli.
For assay [17], the system named is Klebsiella oxytoca.
Assay [18] concerns Klebsiella pneumoniae 1.
For assay [19], the system named is Klebsiella pneumoniae 2.
The subject of assay [20] is Klebsiella pneumoniae 5.
Assay [21] has as its system Klebsiella pneumoniae.
Assay [22] relates to Nocardia asteroides.
Assay [23] has as its system Proteus mirabilis.
Assay [24] concerns Proteus vulgaris.
In assay [25] the test system is Pseudomonas aeruginosa 1.
In assay [26] the test system is Pseudomonas aeruginosa 2.
The test system of assay [27] is Pseudomonas aeruginosa ATCC 27853.
Assay [28] has as its system Salmonella enterica subsp. enterica serovar Paratyphi A.
The subject of assay [29] is Serratia marcescens.
Assay [30] concerns Shigella dysenteriae.
In assay [31] the test system is Staphylococcus aureus 1.
Assay [32] deals with Staphylococcus aureus 4.
In assay [33] the test system is Staphylococcus aureus ATCC 25923.
Assay [34] concerns Staphylococcus epidermidis.
The subject of assay [35] is Stenotrophomonas maltophilia 2.
For assay [36], the system named is Stenotrophomonas maltophilia.
Assay [37] deals with Candida albicans 08022821.
The test system of assay [38] is Candida albicans 08030102.
The test system of assay [39] is Candida albicans 08030401.
Assay [40] has as its system Candida albicans 08032815.
The subject of assay [41] is Candida albicans ATCC 2002.
Assay [42] has as its system Escherichia coli ATCC 25922.
In assay [43] the test system is Staphylococcus aureus ATCC 2592.
Assay [44] concerns Candida albicans C627.
In assay [45] the test system is Enterococcus faecium mic80.
For assay [46], the system named is Escherichia coli ESBL 63103.
In assay [47] the test system is Pseudomonas aeruginosa 213.
Assay [48] deals with Pseudomonas aeruginosa H103.
The test system of assay [49] is Pseudomonas aeruginosa LES400.
Assay [50] has as its system Staphylococcus aureus C623.

In brackets after ≈: the same amount, converted by molar mass. A value given as a limit tells only on which side of the number the result lay.

The term MIC denotes the least concentration at which growth counts as inhibited. As for `CSCC[C@H](NC(=O)[C@@H](NC(=O)[C@H](CCCCN)NC(=O)[C@H](Cc1c[nH]c2ccccc12)NC(=O)[C@H](CC(C)C)NC(=O)[C@H](C)N)[C@@H](C)O)C(=O)N[C@@H](CC(C)C)C(=O)N[C@@H](CCCCN)C(=O)N[C@@H](CCCCN)C(=O)N[C@@H](CC(C)C)C(=O)NCC(=O)N[C@H](C(N)=O)[C@@H](C)O` [ALWKTMLKKLGT], the MIC in [1] was not below 54 µM; in assay [2], not below 54.2 µM; in assay [3] it was not below 54 µM.

Consider `CC[C@H](C)[C@H](NC(=O)[C@H](CO)NC(=O)[C@H](CCCCN)NC(=O)[C@@H](NC(=O)[C@H](CCCCN)NC(=O)[C@H](CCCCN)NC(=O)[C@H](CCCCN)NC(=O)[C@@H](NC(=O)[C@H](CCCCN)NC(=O)[C@@H]1CSSC[C@H](NC(=O)[C@H](CCCCN)NC(=O)[C@@H](N)CCCCN)C(=O)N[C@@H](CCCCN)C(=O)N[C@@H](Cc2ccccc2)C(=O)N[C@@H](Cc2ccccc2)C(=O)N1)C(C)C)[C@@H](C)CC)C(=O)NCC(=O)N[C@@H](Cc1ccccc1)C(=O)N[C@@H](CCC(N)=O)C(=O)N[C@H](C(=O)N1CCC[C@H]1C(=O)N[C@H](C(=O)N[C@H](C(=O)N[C@@H](CO)C(=O)N[C@H](C(=O)N1CCC[C@H]1C(=O)N[C@@H](Cc1ccccc1)C(=O)N[C@@H](CCCCN)C(=O)O)[C@@H](C)CC)C(C)C)[C@@H](C)CC)[C@@H](C)CC` [KKCKFFCKVKKKIKSIGFQIPIVSIPFK], for which the MIC is not below 60.9 µM in assay [4]; 5.71 µM (≈ 18.7 µg/mL) in assay [5]; not below 60.9 µM in assay [6]; 2.86 µM (≈ 9.37 µg/mL) in assay [7]; 2.86 µM (≈ 9.37 µg/mL) in [8]; not below 60.9 µM in assay [9]. Also, the MIC in assay [10] was 11.4 µM (≈ 37.5 µg/mL); in [11], 2.86 µM (≈ 9.37 µg/mL); in assay [12] it was not below 60.9 µM; in [13], not below 60.9 µM; in assay [14], 22.8 µM (≈ 75 µg/mL); in [15] it was 2.86 µM (≈ 9.37 µg/mL). In addition, the MIC is 4.04 µM (≈ 13.3 µg/mL) in assay [16]; 1.43 µM (≈ 4.69 µg/mL) in assay [17]; 11.4 µM (≈ 37.5 µg/mL) in assay [18]; 5.71 µM (≈ 18.7 µg/mL) in assay [19]; not below 60.9 µM in [20]; 22.8 µM (≈ 75 µg/mL) in assay [21]. The MIC in assay [22] was 22.8 µM (≈ 75 µg/mL); in assay [23], 5.71 µM (≈ 18.7 µg/mL); in assay [24], not below 60.9 µM; in assay [25], 5.71 µM (≈ 18.7 µg/mL); in assay [26], 1.43 µM (≈ 4.69 µg/mL); in assay [27] it was 2.86 µM (≈ 9.37 µg/mL). The MIC is 11.4 µM (≈ 37.5 µg/mL) in assay [28]; not below 60.9 µM in [29]; 1.43 µM (≈ 4.69 µg/mL) in assay [30]; 2.02 µM (≈ 6.63 µg/mL) in assay [31]; not below 60.9 µM in [32]; more than 60.9 µM in assay [33]. Further, the MIC worked out at 2.86 µM (≈ 9.37 µg/mL) in assay [34], 2.86 µM (≈ 9.37 µg/mL) in assay [35] and 11.4 µM (≈ 37.5 µg/mL) in assay [36].

As for `CC[C@H](C)[C@H](NC(=O)[C@H](CCC(N)=O)NC(=O)[C@H](CCCCN)NC(=O)[C@H](Cc1ccc(O)cc1)NC(=O)[C@H](CC(C)C)NC(=O)[C@H](CCC(N)=O)NC(=O)[C@@H]1CCCN1C(=O)[C@H](CCSC)NC(=O)[C@H](CCCCN)NC(=O)[C@@H](NC(=O)[C@H](CCCN=C(N)N)NC(=O)[C@H](CCCCN)NC(=O)[C@@H](NC(=O)[C@H](CCSC)NC(=O)[C@@H](NC(=O)[C@H](CC(C)C)NC(=O)[C@@H](NC(=O)[C@@H](N)CCCN=C(N)N)[C@@H](C)CC)[C@@H](C)O)[C@@H](C)O)C(C)C)C(=O)N[C@H](C(=O)N[C@H]1CSSC[C@@H](C(=O)O)NC(=O)[C@H]([C@@H](C)O)NC(=O)[C@H](CCCCN)NC(=O)[C@H](Cc2ccccc2)NC(=O)[C@H](CC(C)C)NC(=O)[C@H](CCCN=C(N)N)NC1=O)C(C)C` [RILTMTKRVKMPQLYKQIVCRLFKTC], the MIC is 7.81 µM (≈ 25 µg/mL) in assay [37]; 31.3 µM (≈ 99.9 µg/mL) in assay [38]; 15.6 µM (≈ 50 µg/mL) in assay [39]; not below 62.5 µM in [40]; 3.13 µM (≈ 9.99 µg/mL) in assay [41]; 31.3 µM (≈ 99.9 µg/mL) in assay [42]. For the same molecule, the MIC in assay [30] and in [43] was 15.6 µM (≈ 50 µg/mL) throughout.

Turning to `CC(C)C[C@H](NC(=O)[C@H](CC(C)C)NC(=O)[C@H](CCCN=C(N)N)NC(=O)[C@H](Cc1c[nH]c2ccccc12)NC(=O)[C@H](Cc1c[nH]c2ccccc12)NC(=O)[C@H](CCCN=C(N)N)NC(=O)[C@H](CCCCN)NC(=O)[C@H](Cc1c[nH]c2ccccc12)NC(=O)[C@@H](N)CCCN=C(N)N)C(=O)O` [RWKRWWRLL], the minimal inhibitory concentration (MIC) in [44] was 5.72 µM (≈ 8 µg/mL); in assay [45], 5.72 µM (≈ 8 µg/mL); in [46] it was 11.4 µM (≈ 16 µg/mL); in assay [47] it was not below 45.7 µM; in [48], 22.9 µM (≈ 32 µg/mL); in assay [49], 22.9 µM (≈ 32 µg/mL). Moreover, the MIC was found to be 11.4 µM (≈ 16 µg/mL) in [33] and 5.72 µM (≈ 8 µg/mL) in assay [50].
